{"source": "patent US8268961B2", "about": "“Antibacterial peptides and analogues thereof” (Universita Degli Studi di Siena, priority 2004, dated 2012)", "key": {"[1]": {"tested_on": "Pichia pastoris yeast strain X33", "test": "Effect on Pichia pastoris yeast colonies", "assay_type": "cell-based", "procedure": "To a volume of 50 μl of culture of Pichia pastoris grown 24 hour at 30° C. in YPD (Yeast Extract/Peptone/Dextrose) medium, 50 μl of MAP peptides (2 mg/ml) were added and left in incubation 150 min at 37° C. Subsequently, 50 μl of each incubation were plated on YPD solid medium and it was allowed to grow for 48 hours at 30° C. The number of colonies grown was compared with a control, where the yeast was not treated with the MAP."}, "[2]": {"test": "Stability to plasmatic protease (HPLC)", "assay_type": "in vitro ADME, human", "method_in_brief": "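Linear and MAP peptides (10 mM in H2O) incubated with human plasma and serum at 37° C. for 2 and 24 hours. Reaction stopped with methanol; supernatant analysed by reverse-phase C18 HPLC (20-95% TFA/methanol gradient, 30 min) for undigested peptide.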"}}, "note": "Positions of bridges follow the written chain, without caps; N, C: chain ends. Chains are numbered I, II in the order given. No end group written: not given here."}
{"substance": "I: QKKIRVRLSAKKA-OH / II: QKKIRVRLSAK / III: QKKIRVRLSA / IV: QKKIRVRLSA (amide I:11-IV:C, I:12-II:C, II:11-III:C) [M6, QKKIRVRLSA]", "values": [{"measurement": "Number of yeast colonies vs negative control", "setting": "[1]", "value": "did not differ from the negative control"}, {"measurement": "Resistance to plasmatic protease: Plasma 2 h", "setting": "[2]", "value": "+"}, {"measurement": "Resistance to plasmatic protease: Plasma 24 h", "setting": "[2]", "value": "+"}]}
